Source: PubChem BioAssay (NCI)
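Method: 48-hour compound exposure of cells in 96-well plates, five concentrations, linear interpolation of endpoints. Definition used: TGI = concentration required for complete inhibition of growth.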

Assays:
Test in all cases: NCI tumour cell line growth inhibition, 48 h
HCT-116 colon = tested on: HCT-116 colon
SK-MEL-5 melanoma = tested on: SK-MEL-5 melanoma
MOLT-4 leukemia = tested on: MOLT-4 leukemia
PC-3 prostate = tested on: PC-3 prostate
UACC-62 melanoma = tested on: UACC-62 melanoma
U251 CNS = tested on: U251 CNS
IGROV1 ovarian = tested on: IGROV1 ovarian
SF-539 CNS = tested on: SF-539 CNS
SW-620 colon = tested on: SW-620 colon
EKVX NSCLC = tested on: EKVX NSCLC
SN12C renal = tested on: SN12C renal
HOP-62 NSCLC = tested on: HOP-62 NSCLC
MCF7 breast = tested on: MCF7 breast
MALME-3M melanoma = tested on: MALME-3M melanoma
NCI/ADR-RES ovarian = tested on: NCI/ADR-RES ovarian
SNB-75 CNS = tested on: SNB-75 CNS
HT29 colon = tested on: HT29 colon
MDA-MB-435 = tested on: MDA-MB-435
T-47D breast = tested on: T-47D breast
M14 melanoma = tested on: M14 melanoma
SK-OV-3 ovarian = tested on: SK-OV-3 ovarian
OVCAR-5 ovarian = tested on: OVCAR-5 ovarian
NCI-H226 lung = tested on: NCI-H226 lung
OVCAR-3 ovarian = tested on: OVCAR-3 ovarian
HS 578T breast = tested on: HS 578T breast
HOP-92 NSCLC = tested on: HOP-92 NSCLC
TK-10 renal = tested on: TK-10 renal
RPMI-8226 leukemia = tested on: RPMI-8226 leukemia
DU-145 prostate = tested on: DU-145 prostate
HCC-2998 colon = tested on: HCC-2998 colon
KM12 colon = tested on: KM12 colon
UACC-257 melanoma = tested on: UACC-257 melanoma
MDA-MB-231 breast = tested on: MDA-MB-231 breast
K-562 leukemia = tested on: K-562 leukemia
CAKI-1 renal = tested on: CAKI-1 renal
HL-60(TB) leukemia = tested on: HL-60(TB) leukemia
NCI-H23 lung = tested on: NCI-H23 lung
OVCAR-8 ovarian = tested on: OVCAR-8 ovarian
NCI-H522 lung = tested on: NCI-H522 lung
SK-MEL-28 melanoma = tested on: SK-MEL-28 melanoma
COLO 205 colon = tested on: COLO 205 colon
NCI-H460 lung = tested on: NCI-H460 lung
ACHN renal = tested on: ACHN renal
OVCAR-4 ovarian = tested on: OVCAR-4 ovarian
LOX IMVI melanoma = tested on: LOX IMVI melanoma
786-0 renal = tested on: 786-0 renal
UO-31 renal = tested on: UO-31 renal
MDA-N = tested on: MDA-N
SNB-19 CNS = tested on: SNB-19 CNS
SF-295 CNS = tested on: SF-295 CNS
A549 NSCLC = tested on: A549 NSCLC
RXF 393 renal = tested on: RXF 393 renal
HCT-15 colon = tested on: HCT-15 colon
SF-268 CNS = tested on: SF-268 CNS
SK-MEL-2 melanoma = tested on: SK-MEL-2 melanoma
CCRF-CEM leukemia = tested on: CCRF-CEM leukemia

`Cc1c(N=Nc2ccc(Cl)cc2)c(C)n(C2OC(CO)C(O)C(O)C2O)c(=S)c1C#N` (stereo unspecified) showed a TGI (HCT-116 colon) of 29.1 µM, a TGI (SK-MEL-5 melanoma) of 21.8 µM and a TGI (MOLT-4 leukemia) of 42.3 µM. For the same molecule, the TGI (PC-3 prostate) was 68.7 µM, the TGI (UACC-62 melanoma) was 30.5 µM and the TGI (U251 CNS) was 36.4 µM. The TGI (IGROV1 ovarian) was 37.4 µM, the TGI (SF-539 CNS) was 38 µM and the TGI (SW-620 colon) was > 100 µM. It also gave a TGI (EKVX NSCLC) of 93.2 µM, a TGI (SN12C renal) of 41.8 µM and a TGI (HOP-62 NSCLC) of 36.8 µM. The TGI (MCF7 breast) was > 100 µM, the TGI (MALME-3M melanoma) was 46.3 µM and the TGI (NCI/ADR-RES ovarian) was 47.1 µM. For the same molecule, the TGI (SNB-75 CNS) was 68 µM, the TGI (HT29 colon) was > 100 µM and the TGI (MDA-MB-435) was 42.7 µM. For the same molecule, the TGI (T-47D breast) was > 100 µM, the TGI (M14 melanoma) was 36.5 µM and the TGI (SK-OV-3 ovarian) was > 100 µM. For the same molecule, the TGI (OVCAR-5 ovarian) was > 100 µM, the TGI (NCI-H226 lung) was 65.9 µM and the TGI (OVCAR-3 ovarian) was 34.2 µM. The TGI (HS 578T breast) was 83 µM, the TGI (HOP-92 NSCLC) was 71.4 µM and the TGI (TK-10 renal) was 79.5 µM. The TGI (RPMI-8226 leukemia) was 50.3 µM, the TGI (DU-145 prostate) was > 100 µM and the TGI (HCC-2998 colon) was 58.7 µM. It also gave a TGI (KM12 colon) of 54.5 µM, a TGI (UACC-257 melanoma) of 54.1 µM and a TGI (MDA-MB-231 breast) of 36.1 µM. The TGI (K-562 leukemia) was 55.4 µM, the TGI (CAKI-1 renal) was > 100 µM and the TGI (HL-60(TB) leukemia) was 58.3 µM. It also gave a TGI (NCI-H23 lung) of 74.3 µM, a TGI (OVCAR-8 ovarian) of 63.9 µM and a TGI (NCI-H522 lung) of 49.9 µM. It also gave a TGI (SK-MEL-28 melanoma) of 52.3 µM, a TGI (COLO 205 colon) of 40.6 µM and a TGI (NCI-H460 lung) of 87.4 µM. The TGI (ACHN renal) was 55.5 µM, the TGI (OVCAR-4 ovarian) was 50.1 µM and the TGI (LOX IMVI melanoma) was 33.3 µM. For the same molecule, the TGI (786-0 renal) was 37.4 µM, the TGI (UO-31 renal) was 57.9 µM and the TGI (MDA-N) was 50.4 µM. For the same molecule, the TGI (SNB-19 CNS) was > 100 µM, the TGI (SF-295 CNS) was 83.5 µM and the TGI (A549 NSCLC) was > 100 µM. The TGI (RXF 393 renal) was 71.6 µM, the TGI (HCT-15 colon) was 60.8 µM and the TGI (SF-268 CNS) was 52.1 µM. The TGI (SK-MEL-2 melanoma) was 33.8 µM and the TGI (CCRF-CEM leukemia) was 53.5 µM.
